# In BindingDB's records for doi:10.1016/j.bmc.2018.06.012 (Astellas Pharma, 2018):
# Experiment: Inhibition of PI3Kdelta in Balb/c mouse splenocytes-derived B cells assessed as reduction in anti-IgM antibody-stimulated B cell proliferation after 2 days alamar blue assay
row,SMILES,IC50
1,COc1ncc(-c2cc(O[C@@H]3CCN(C(=O)C4CCOCC4)C3)c3cnn(C)c3n2)cc1NS(C)(=O)=O,2.6 nM
2,COc1ncc(-c2cc(OC[C@@H]3CCCN(CCC4CCOCC4)C3)c3cnn(C)c3n2)cc1NS(C)(=O)=O,0.41 nM
3,COc1ncc(-c2cc(OC[C@@H]3CCCN(Cc4c(C)nn(C)c4C)C3)c3cnn(C)c3n2)cc1NS(C)(=O)=O,1.5 nM
4,COc1ncc(-c2cc(OC[C@@H]3CCCN(CC4(C)COC4)C3)c3cnn(C)c3n2)cc1NS(C)(=O)=O,1.5 nM
5,COc1ncc(-c2cc(OC[C@@H]3CCCN(Cc4cn(C)nc4C)C3)c3cnn(C)c3n2)cc1NS(C)(=O)=O,4.8 nM
6,COc1ncc(-c2cc(OC[C@@H]3CCCN(C(=O)C4CCOCC4)C3)c3cnn(C)c3n2)cc1NS(C)(=O)=O,1.4 nM
7,COc1ncc(-c2cc(OC[C@@H]3CCCN(C(=O)CC4CCOC4)C3)c3cnn(C)c3n2)cc1NS(C)(=O)=O (some centres not stated),2.9 nM
8,COc1ncc(-c2cc(OC[C@H]3CCCN(C(=O)C4CCOCC4)C3)c3cnn(C)c3n2)cc1NS(C)(=O)=O,7.8 nM

# Further compounds by falling IC50, results first:
row,IC50,SMILES
1,20 nM,COc1ncc(-c2cc(OC3CN(C(=O)C4CCOCC4)C3)c3cnn(C)c3n2)cc1NS(C)(=O)=O
2,4.3 nM,COc1ncc(-c2cc(OC[C@@H]3CCCN(C(=O)C4CCN(C(C)=O)CC4)C3)c3cnn(C)c3n2)cc1NS(C)(=O)=O
3,2.1 nM,COc1ncc(-c2cc(O[C@@H]3CCN(Cc4c(C)nn(C)c4C)C3)c3cnn(C)c3n2)cc1NS(C)(=O)=O
4,0.29 nM,COc1ncc(-c2cc(OC[C@@H]3CCCN(CC4CCOCC4)C3)c3cnn(C)c3n2)cc1NS(C)(=O)=O
